How the values were obtained:
Format in all cases: in vivo
Setaria viridis = assay: Test Example 4: herbicidal effect by application to foliage (diluvial soil, plastic box); conditions: foliage application, 320 g/ha
Outline: (§1)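 Seeds sown in sterilized diluvial soil, covered ~1.5 cm, grown 14 days in greenhouse at 25° C. to 30° C. Emulsion formulation diluted in water to set rate (g/ha) and sprayed onto stems and leaves. Effect scored visually 3 weeks later on 0–5 scale (5 = ≥90% herbicidal ratio, 0 = ≤5%).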

Avena fatua = assay: as above; conditions: foliage application, 320 g/ha
Outline: as §1

[1] = test system: Echinochloa crus-galli var. crus-galli; assay: as above; conditions: foliage application, 320 g/ha
Outline: as §1

Digitaria ciliaris = assay: as above; conditions: foliage application, 320 g/ha
Outline: as §1

Alopecurus myosuroides = assay: as above; conditions: foliage application, 320 g/ha
Outline: as §1

Chenopodium album = assay: as above; conditions: foliage application, 320 g/ha
Outline: as §1

Veronica persica = assay: as above; conditions: foliage application, 320 g/ha
Outline: as §1

Apera spica-venti. = assay: as above; conditions: foliage application, 320 g/ha
Outline: as §1

Lolium multiflorum Lam. = assay: as above; conditions: foliage application, 320 g/ha
Outline: as §1

Abutilon theophrasti = assay: as above; conditions: foliage application, 320 g/ha
Outline: as §1

Galium spurium = assay: as above; conditions: foliage application, 320 g/ha
Outline: as §1

Amaranthus retroflexus = assay: as above; conditions: foliage application, 320 g/ha
Outline: as §1

Stellaria media = assay: as above; conditions: foliage application, 320 g/ha
Outline: as §1

[2] = test system: directly sowed Oryza sativa; assay: Test Example 4: effect on crop by application to foliage (diluvial soil, plastic box); conditions: foliage application, 320 g/ha
Outline: as §1

[3] = test system: Beta vulgaris ssp. vulgaris; assay: as above; conditions: foliage application, 320 g/ha
Outline: as §1

Glycine max = assay: as above; conditions: foliage application, 320 g/ha
Outline: as §1

Zea mays = assay: as above; conditions: foliage application, 320 g/ha
Outline: as §1

Brassica campestris L. = assay: as above; conditions: foliage application, 320 g/ha
Outline: as §1

Triticum aestivum = assay: as above; conditions: foliage application, 320 g/ha
Outline: as §1

[4] = test system: Echinochloa oryzacola Vasing.; assay: Test Example 2: herbicidal activity, application during weed generation in submerged conditions; conditions: Eighteenth Table; application herbicide amount 320 g/ha
Outline: (§2)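 Scored three weeks post-application on a 0–5 scale (5: ≥90% herbicidal ratio, almost withered; 0: ≤5%). Plants raised from mixed-sown seed in submerged alluvial soil (4 cm water), 25–30 °C greenhouse; water-diluted emulsion applied onto water surface at one- to two-leaf stage, dose in g/ha.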

Monochoria vaginalis = assay: as above; conditions: Eighteenth Table; application herbicide amount 320 g/ha
Outline: as §2

Scirpus juncoides = assay: as above; conditions: Eighteenth Table; application herbicide amount 320 g/ha
Outline: as §2

`CC(C)c1nnc2c(C(=S)Nc3nnnn3C)ccc(C(F)(F)F)n12` [2-039, 3-Isopropyl-N-(1-methyl-1H-tetrazol-5-yl)-5-(trifluoromethyl)-[1,2,4]triazolo[4,3-a]pyridine-8-carbothioamide] was tested. Which “G (Setaria viridis) herbicidal effect grade” value (Setaria viridis) did it give?
The value was 5 (Herbicidal ratio of 90% or more (almost completely withered)).

And the “I (Avena fatua) herbicidal effect grade” value (Avena fatua)?
The value was 4 (Herbicidal ratio of 70% or more and less than 90%).

And the “H (Echinochloa crus-galli var. crus-galli) herbicidal effect grade” value [1]?
The value was 5 (Herbicidal ratio of 90% or more (almost completely withered)).

And the “F (Digitaria ciliaris) herbicidal effect grade” value (Digitaria ciliaris)?
Its value is 5 (Herbicidal ratio of 90% or more (almost completely withered)).

What about the “J (Alopecurus myosuroides) herbicidal effect grade” value (Alopecurus myosuroides) of the same molecule?
The value was 3 (Herbicidal ratio of 40% or more and less than 70%).

And the “O (Chenopodium album) herbicidal effect grade” value (Chenopodium album)?
The value was 5 (Herbicidal ratio of 90% or more (almost completely withered)).

And the “R (Veronica persica) herbicidal effect grade” value (Veronica persica)?
The value was 5 (Herbicidal ratio of 90% or more (almost completely withered)).

What about the “L (Apera spica-venti.) herbicidal effect grade” value (Apera spica-venti.) of the same molecule?
Its value is 4 (Herbicidal ratio of 70% or more and less than 90%).

And the “K (Lolium multiflorum Lam.) herbicidal effect grade” value (Lolium multiflorum Lam.)?
Its value is 3 (Herbicidal ratio of 40% or more and less than 70%).

And the “M (Abutilon theophrasti) herbicidal effect grade” value (Abutilon theophrasti)?
Its value is 5 (Herbicidal ratio of 90% or more (almost completely withered)).

And the “Q (Galium spurium) herbicidal effect grade” value (Galium spurium)?
Its value is 4 (Herbicidal ratio of 70% or more and less than 90%).

And the “N (Amaranthus retroflexus) herbicidal effect grade” value (Amaranthus retroflexus)?
The value was 5 (Herbicidal ratio of 90% or more (almost completely withered)).

And the “P (Stellaria media) herbicidal effect grade” value (Stellaria media)?
Its value is 5 (Herbicidal ratio of 90% or more (almost completely withered)).

And the “d (directly sowed Oryza sativa) effect on crop grade” value [2]?
Its value is 4 (Herbicidal ratio of 70% or more and less than 90%).

What about the “f (Beta vulgaris ssp. vulgaris) effect on crop grade” value [3] of the same molecule?
Its value is 5 (Herbicidal ratio of 90% or more (almost completely withered)).

And the “c (Glycine max) effect on crop grade” value (Glycine max)?
Its value is 3 (Herbicidal ratio of 40% or more and less than 70%).

And the “b (Zea mays) effect on crop grade” value (Zea mays)?
The value was 4 (Herbicidal ratio of 70% or more and less than 90%).

What about the “g (Brassica campestris L.) effect on crop grade” value (Brassica campestris L.) of the same molecule?
Its value is 5 (Herbicidal ratio of 90% or more (almost completely withered)).

And the “e (Triticum aestivum) effect on crop grade” value (Triticum aestivum)?
The value was 3 (Herbicidal ratio of 40% or more and less than 70%).

What about the “A (Echinochloa oryzicola Vasing.) herbicidal ratio grade” value [4] of the same molecule?
The value was 5 (Herbicidal ratio of 90% or more (almost completely withered)).

What about the “C (Monochoria vaginalis) herbicidal ratio grade” value (Monochoria vaginalis) of the same molecule?
Its value is 5 (Herbicidal ratio of 90% or more (almost completely withered)).

And the “B (Scirpus juncoides) herbicidal ratio grade” value (Scirpus juncoides)?
The value was 5 (Herbicidal ratio of 90% or more (almost completely withered)).
